Data as given in patent publication US6979686B1, “Substituted pyrazoles as p38 kinase inhibitors” (Pharmacia Corporation, priority 2001, dated 2005).
Like-named read-outs stand apart in the source and are kept apart here.

What was measured:
[1] = molecular target: T1, human p38 kinase alpha (Homo sapiens, UniProt Q16539); assay: p38 kinase in vitro assay, phosphorylation of biotinylated PHAS-I with 32P-ATP; format: biochemical; settings: for IC50: in vitro P38-alpha kinase, read-out: P38 alpha kinase IC50; for P38 alpha kinase % inhib @ conc.: @ 10.0 uM
T1 construct: GST (N, cleaved yes); made in house; host or cells: E. coli DH10B

[2] = system: TNF-α, U937 human histiocytic lymphoma cell line; assay: LPS stimulation of TNF production by U937 cells; format: cell-based; settings: for IC50: human U937 cells stimulated with LPS, read-out: U937 Cell IC50; for inhibition at 1 µM: U-937, @ 1.0 uM; for inhibition at 1 µM / inhibition at 10 µM / U937 Cell % inhib @ conc.: LPS-stimulated U937 cells; for inhibition at 1 µM / inhibition at 10 µM: read-out: U937 Cell % inhib @ conc.; for inhibition at 10 µM: U-937, @ 10.0 uM; for U937 Cell % inhib @ conc.: @ 10.0 uM
In short: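 U937 cells differentiated 24 h with 20 ng/ml PMA, rested 24-48 h, used at 2 million cells/ml. Compounds in 0.1% DMSO final; LPS (E. coli, 100 ng/ml final) stimulation for 4 h at 37° C. Released TNF-α measured by ELISA; IC50 (μM).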

[3] = Homo sapiens, U-937, TNF production

T1 sequence (Q16539 whole entry): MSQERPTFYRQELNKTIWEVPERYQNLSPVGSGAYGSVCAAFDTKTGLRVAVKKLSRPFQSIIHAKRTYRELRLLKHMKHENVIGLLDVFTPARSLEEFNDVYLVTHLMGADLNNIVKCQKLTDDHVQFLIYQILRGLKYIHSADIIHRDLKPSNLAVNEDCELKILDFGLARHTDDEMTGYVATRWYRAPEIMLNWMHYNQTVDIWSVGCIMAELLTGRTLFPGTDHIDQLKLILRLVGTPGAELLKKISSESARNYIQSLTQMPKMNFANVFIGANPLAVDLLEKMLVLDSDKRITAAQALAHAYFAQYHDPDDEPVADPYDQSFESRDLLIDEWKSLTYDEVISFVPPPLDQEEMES

Row | IC50 [1] [nM] | Compound | inhibition at 1 µM ([2]; Homo sapiens, TNF production) [%] | further results
1 | 1430 | O=S(=O)(c1cccc(Cl)c1Cl)N1CCC(c2[nH]nc(-c3ccc(F)cc3)c2-c2ccncc2)CC1 [Example B-1448] | 22 | –
2 | 1210 | O=S(=O)(c1c(F)cccc1F)N1CCC(c2[nH]nc(-c3ccc(F)cc3)c2-c2ccncc2)CC1 [Example B-1455] | 8 | –
3 | 1290 | O=S(=O)(c1ccc(F)c(F)c1)N1CCC(c2[nH]nc(-c3ccc(F)cc3)c2-c2ccncc2)CC1 [Example B-1456] | – | IC50 [2, 3]: > 1000 nM
4 | 960 | O=S(=O)(c1ccccc1C(F)(F)F)N1CCC(c2[nH]nc(-c3ccc(F)cc3)c2-c2ccncc2)CC1 [Example B-1460] | 29 | –
5 | 3230 | O=S(=O)(c1cccc(Cl)c1)N1CCC(c2[nH]nc(-c3ccc(F)cc3)c2-c2ccncc2)CC1 [Example B-1465] | 31 | –
6 | 1690 | O=S(=O)(c1cccc(Br)c1)N1CCC(c2[nH]nc(-c3ccc(F)cc3)c2-c2ccncc2)CC1 [Example B-1466] | – | IC50 [2, 3]: > 1000 nM
7 | 1220 | Cc1cccc(S(=O)(=O)N2CCC(c3[nH]nc(-c4ccc(F)cc4)c3-c3ccncc3)CC2)c1 [Example B-1467] | 1 | –
8 | 1610 | O=S(=O)(c1cccc(C(F)(F)F)c1)N1CCC(c2[nH]nc(-c3ccc(F)cc3)c2-c2ccncc2)CC1 [Example B-1468] | 10 | –
9 | 370 | N#Cc1cccc(S(=O)(=O)N2CCC(c3[nH]nc(-c4ccc(F)cc4)c3-c3ccncc3)CC2)c1 [Example B-1469] | 14 | –
10 | 600 | O=S(=O)(c1ccc(F)cc1)N1CCC(c2[nH]nc(-c3ccc(F)cc3)c2-c2ccncc2)CC1 [Example B-1470] | 28 | –
11 | 850 | O=S(=O)(c1ccc(Cl)cc1)N1CCC(c2[nH]nc(-c3ccc(F)cc3)c2-c2ccncc2)CC1 [Example B-1471] | 25 | –
12 | 1240 | Cc1ccc(S(=O)(=O)N2CCC(c3[nH]nc(-c4ccc(F)cc4)c3-c3ccncc3)CC2)cc1 [Example B-1473] | 14 | –
13 | 1230 | O=S(=O)(c1ccc(C(F)(F)F)cc1)N1CCC(c2[nH]nc(-c3ccc(F)cc3)c2-c2ccncc2)CC1 [Example B-1474] | 31 | –
14 | 2100 | N#Cc1ccc(S(=O)(=O)N2CCC(c3[nH]nc(-c4ccc(F)cc4)c3-c3ccncc3)CC2)cc1 [Example B-1475] | 24 | –
15 | 720 | CCCNC(=O)Cn1nc(-c2ccc(F)cc2)c(-c2ccncc2)c1C [Example B-2270] | – | inhibition at 10 µM ([2]; Homo sapiens, TNF production): 31%
16 | 320 | Cc1c(-c2ccncc2)c(-c2ccc(F)cc2)nn1CC(=O)NCCc1cccs1 [Example B-2279] | – | U937 Cell % inhib @ conc. ([2]; TNF production): 36.0% @
17 | 3000 | Cc1c(-c2ccncc2)c(-c2ccc(F)cc2)nn1CC(=O)NCCCN1CCN(C)CC1 [Example B-2289] | – | inhibition at 10 µM ([2]; Homo sapiens, TNF production): 30%
18 | 290 | COc1cc(NC(=O)CCNC(=O)Cn2nc(-c3ccc(F)cc3)c(-c3ccncc3)c2C)cc2ccccc12 [Example B-2298] | – | IC50 ([2]; TNF production): 4220 nM
19 | 490 | COc1ccccc1CCNC(=O)Cn1nc(-c2ccc(F)cc2)c(-c2ccncc2)c1C [Example B-2315] | – | U937 Cell % inhib @ conc. ([2]; TNF production): 36.0% @

The remaining lines, values behind:

Row | Compound | IC50 [1] [nM] | inhibition at 1 µM ([2]; Homo sapiens, TNF production) [%] | further results
20 | CS(=O)(=O)c1ccc(CNC(=O)NCCCc2[nH]nc(-c3ccc(F)cc3)c2-c2ccncc2)cc1 [Example B-1312] | 350 | – | IC50 [2, 3]: > 1000 nM
21 | O=C(NCCCc1[nH]nc(-c2ccc(F)cc2)c1-c1ccncc1)NCCc1ccccn1 [Example B-1314] | 45 | 24 | –
22 | O=C(NCCCc1[nH]nc(-c2ccc(F)cc2)c1-c1ccncc1)NCC1CC1 [Example B-1316] | 26 | 36 | –
23 | O=C(NCCCc1[nH]nc(-c2ccc(F)cc2)c1-c1ccncc1)NCCCN1CCCC1 [Example B-1318] | < 100 | 1 | –
24 | O=C(NCCCc1[nH]nc(-c2ccc(F)cc2)c1-c1ccncc1)NCCCN1CCCC1=O [Example B-1319] | 240 | – | IC50 [2, 3]: > 1000 nM
25 | O=C(c1ccc(I)cc1)N1CCC(c2[nH]nc(-c3ccc(F)cc3)c2-c2ccncc2)CC1 [Example B-1366] | 40 | – | IC50 [2, 3]: 270 nM
26 | COc1cccc(CC(=O)N2CCC(c3[nH]nc(-c4ccc(F)cc4)c3-c3ccncc3)CC2)c1 [Example B-1370] | < 100 | – | IC50 [2, 3]: 770 nM
27 | CCS(=O)(=O)N1CCC(c2[nH]nc(-c3ccc(F)cc3)c2-c2ccncc2)CC1 [Example B-1375] | 10 | – | IC50 [2, 3]: 250 nM
28 | O=S(=O)(c1ccccc1F)N1CCC(c2[nH]nc(-c3ccc(F)cc3)c2-c2ccncc2)CC1 [Example B-1377] | 120 | – | IC50 [2, 3]: 5000 nM
29 | O=C(Nc1ccccc1F)N1CCC(c2[nH]nc(-c3ccc(F)cc3)c2-c2ccncc2)CC1 [Example B-1379] | < 100 | – | IC50 [2, 3]: 92 nM
30 | CCNC(=O)N1CCC(c2[nH]nc(-c3ccc(F)cc3)c2-c2ccncc2)CC1 [Example B-1381] | 55 | – | IC50 [2, 3]: 730 nM
31 | O=C(c1cccs1)N1CCC(c2[nH]nc(-c3ccc(F)cc3)c2-c2ccncc2)CC1 [Example B-1384] | 570 | – | IC50 [2, 3]: 370 nM
32 | O=C(c1ccccn1)N1CCC(c2[nH]nc(-c3ccc(F)cc3)c2-c2ccncc2)CC1 [Example B-1386] | < 100 | – | IC50 [2, 3]: 250 nM
33 | O=C(c1ccc(Br)cc1)N1CCC(c2[nH]nc(-c3ccc(F)cc3)c2-c2ccncc2)CC1 [Example B-1388] | 570 | – | IC50 [2, 3]: 1380 nM
34 | O=C(c1ccc(Cl)cc1)N1CCC(c2[nH]nc(-c3ccc(F)cc3)c2-c2ccncc2)CC1 [Example B-1389] | 60 | – | IC50 [2, 3]: 570 nM
35 | O=C(c1ccccc1Cl)N1CCC(c2[nH]nc(-c3ccc(F)cc3)c2-c2ccncc2)CC1 [Example B-1397] | 920 | 85 | –
36 | O=S(=O)(c1ccccc1)N1CCC(c2[nH]nc(-c3ccc(F)cc3)c2-c2ccncc2)CC1 [Example B-1433] | 260 | 21 | –
37 | Cn1cnc(S(=O)(=O)N2CCC(c3[nH]nc(-c4ccc(F)cc4)c3-c3ccncc3)CC2)c1 [Example B-1434] | 190 | 28 | –
38 | O=S(=O)(c1ccc(-c2ccon2)s1)N1CCC(c2[nH]nc(-c3ccc(F)cc3)c2-c2ccncc2)CC1 [Example B-1440] | 870 | 3 | –
39 | CN(C)c1cccc2c(S(=O)(=O)N3CCC(c4[nH]nc(-c5ccc(F)cc5)c4-c4ccncc4)CC3)cccc12 [Example B-1442] | 1540 | 18 | –
40 | COc1ccc(OC)c(S(=O)(=O)N2CCC(c3[nH]nc(-c4ccc(F)cc4)c3-c3ccncc3)CC2)c1 [Example B-1444] | 300 | 24 | –
41 | COc1ccc(Br)cc1S(=O)(=O)N1CCC(c2[nH]nc(-c3ccc(F)cc3)c2-c2ccncc2)CC1 [Example B-1446] | 770 | 36 | –
42 | Cc1c(-c2ccncc2)c(-c2ccc(F)cc2)nn1CC(=O)NC1CCc2ccccc21 (stereo not shown) [Example B-2318] | – | – | P38 alpha kinase % inhib @ conc. [1]: 73.0% @; U937 Cell % inhib @ conc. ([2]; TNF production): 25.0% @
43 | COC(=O)[C@H](CCSC)NC(=O)Cn1nc(-c2ccc(F)cc2)c(-c2ccncc2)c1C [Example B-2324] | – | – | P38 alpha kinase % inhib @ conc. [1]: 58.0% @; U937 Cell % inhib @ conc. ([2]; TNF production): 36.0% @
44 | Cc1c(-c2ccncc2)c(-c2ccc(F)cc2)nn1CC(=O)NC(C)Cc1c[nH]c2ccccc12 (stereo not shown) [Example B-2328] | – | – | P38 alpha kinase % inhib @ conc. [1]: 65.0% @; U937 Cell % inhib @ conc. ([2]; TNF production): 28.0% @
45 | Cc1c(-c2ccncc2)c(-c2ccc(F)cc2)nn1CC(=O)NC1CCCC1 [Example B-2333] | – | – | P38 alpha kinase % inhib @ conc. [1]: 58.0% @; U937 Cell % inhib @ conc. ([2]; TNF production): 36.0% @
46 | COC(=O)[C@H](CSCc1ccccc1)NC(=O)Cn1nc(-c2ccc(F)cc2)c(-c2ccncc2)c1C [Example B-2339] | – | – | P38 alpha kinase % inhib @ conc. [1]: 84.0% @; IC50 ([2]; TNF production): > 10000 nM
47 | CCOC(=O)C(Cc1ccccc1)NC(=O)Cn1nc(-c2ccc(F)cc2)c(-c2ccncc2)c1C (stereo not shown) [Example B-2351] | – | – | P38 alpha kinase % inhib @ conc. [1]: 77.0% @; U937 Cell % inhib @ conc. ([2]; TNF production): 1.0% @
